Laboratory results taken from patent US9688760B2, “Anti-leukocyte adhesion for the mitigation of potential adverse events caused by CD3-specific binding domains” (AMGEN RESEARCH (MUNICH) GMBH, priority 2013, dated 2017).

Legend:
patients = assay: Phase 1 clinical study: Blinatumomab with PPS co-medication; format: in vivo, human; details: for clinical response: with PPS co-medication
Procedure: In a phase 1 clinical study three patients were treated with Blinatumomab at an initial dose of 5 μg/m^2/day for 1 week followed by a dose escalation to 60 μg/m^2/day for additional 3 to 7 weeks.

HUVEC = assay: In vitro flow chamber: T cell-rolling and adhesion on HUVEC, long-term conditions; format: cell-based, human; details: 40 min
Procedure: Human brain microvascular endothelial cells (HBMEC) (#1000, Sciencell Research Laboratories) or human umbilical vein endothelial cells (HUVEC) (#C-12200, Promocell) were used as endothelial cell-model. Cryopreserved HBMEC at passage 1 (>5×10^5 cells/ml) were first cultivated in fibronectin-coated Nunclon-treated 75 cm^2 cell culture flasks (#156499, Nunc) at 37° C. and 5% CO2 in a Heraeus Cytoperm 2 (Thermo Scientific) according to the manufacturer's instructions. Sub-cultivation of HBMEC was done with the Detach Kit (#C-41200, Promocell) consisting of HEPES-buffered balanced salt solution (#C-40000, Promocell), trypsin-EDTA solution (0.04%/0.03%) (#C-41000, Promocell) and trypsin neutralization solution (TNS, #C-41100, Promocell). Briefly, the medium was aspirated from the HBMEC-layer and cells were washed with 2 ml of HEPES-buffered balanced salt solution. Addition of 2 ml of trypsin-EDTA solution for 1-5 min at room temperature led to detachment of HBMEC from the flask bottom. Inactivation of trypsin-EDTA solution was performed by addition of 2 ml of trypsin neutralization solution to the cell suspension. Cells were centrifuged at 300 g for 4 min in a Heraeus Megafuge 40 (Thermo Scientific) and seeded at a cell density of 5×10^5 cells per gelatin-coated 75 cm^2 cell culture flask (#L7230, Biochrom). HBMEC for rolling and adhesion experiments were cultivated in RPMI 1640 medium (#FG1215, Biochrom) supplemented with Nu-Serum IV (10%) (#355505, BD Biosciences), dialyzed FBS (10%) (#SZ0115, Biochrom), MEM-vitamins (1%) (#K0373, Biochrom), L-glutamine (1%) (#K0283, Biochrom), sodium-pyruvate (1%) (#L0473, Biochrom), heparin (10 U/ml) (#L6510, Biochrom), and […] cell growth factor ECGS (30 μg/ml) (#02-102, Millipore). Cultivation of HUVEC was done in endothelial cell growth medium (#C-22010, Promocell) supplemented with dialyzed FBS (10%) (#SZ0115, Biochrom) using gelatin-coated 75 cm^2 cell culture flasks. Sub-cultivation of HUVEC was performed with the Detach Kit ([…], Promocell) and cells were seeded at a cell density of 4.0-7.5×10^5 cells per 75 cm^2 cell culture flask.
Isolation of human PBMC from blood was performed by modified density gradient centrifugation as described elsewhere. Briefly, 15-20 ml of freshly drawn heparinized blood was transferred in Biocoll (#L6115, Biochrom)-containing Leukosep tubes (#227290, Greiner bio-one) and centrifuged in a Hettich Rotanta 460 RS Type 5606 (Hettich Laborapparate) at 1066 g for 15 min. After removal of the plasma fraction the PBMC containing phase was transferred in a new tube and washed twice with FACS-buffer (D-PBS #L1820, 5% FBS #SO115, Biochrom). Erythrocyte lysis was performed with lysis buffer (8.29 g/l NH4Cl, 1.00 g/l KHCO3, 0.037 g/l EDTA) for 5 min at room temperature. […]

[1] = three patients with PPS co-medication

## Blinatumomab: recombinant CD19×CD3 bispecific scFv antibody consisting of four immunoglobulin variable domains assembled into a single polypeptide chain
patients; Patient 109-036, Follicular Lymphoma grade I/II, after 57 days of civ infusion
  clinical response: complete response (CR)
patients; Patient 109-040, Lymphoplasmocytic Lymphoma, after 30 days of civ infusion
  clinical response: stable disease (SD)
patients; Patient 109-042, Follicular Lymphoma grade I/II, after 56 days of civ infusion
  clinical response: complete response (CR)
patients; patients receiving Blinatumomab without co-medication with PPS
  T cell-counts in peripheral blood 45 minutes after start of infusion or stepwise dose increase: rapid decline of T cell-counts
patients; [1]
  clinical response after 4 weeks of treatment: one patient had a stable disease
  clinical response after 8 weeks of treatment: Two out of the three patients achieved a complete response
HUVEC; +AMG 103 10 ng/ml vs T cells alone, long-term
  increase of number of adhering T cells: 2.1 fold
HUVEC; non-stimulated HUVEC (minocycline experiment), +AMG 103 10 ng/ml, control −AMG 103 169
  mean T cell-rolling velocity±SD: 127±41 μm/sec
